Values of other authors, collected in patent JP2018030810A, “ゲフィチニブを有効成分とする医薬錠剤の製造方法” (Nippon Kayaku Co Ltd, priority 2016, dated 2018).
Converted amounts (≈) assume the structure as drawn. Like-named read-outs stand apart in the source and are kept apart here.

solubility (in words) (pH1): 可溶性
solubility (in words) (pH4〜6): 溶解度は大きく低下
solubility (pH6): ~1000 µg/mL (≈ 2240 µM)
solubility (in words) (pH7): 実質的に不溶性
aqueous solubility (in words) (small intestine environment, pH4〜8): 水溶解度が極端に低下する
aqueous solubility (in words) (stomach, acidic environment pH1〜4): 良好な水溶解度
solubility (in words) (water): ほとんど溶解しない
SMILES: COc1cc2ncnc(Nc3ccc(F)c(Cl)c3)c2cc1OCCCN1CCOCC1 [ゲフィチニブ, N−(3−クロロ−4−フルオロフェニル)−7−メトキシ−6−[3−(モルフォリン−4−イル)プロポキシ]キナゾリン−4−アミン]
